Measured values published in patent US20060058286A1, “Methods of treating HIV infection” (priority 2004, published 2006).

Columns and labels:
[1] = test system: HIV-1 NL4-3; assay: microbe, parasite or virus in culture; settings: Human immunodeficiency virus 1, NL43, MT2, 120 h
Description: (§1) Virus and cell lines. The T-cell line, MT-2 was obtained through the AIDS Research and Reference Reagent Program, NIAID and was contributed by Dr. D. Richman. The cell line was cultured in RPMI 1640 medium supplemented with 10% fetal bovine serum, 2 mM L-glutamine and sub-cultured twice a week. The NL4-3 strain of HIV-1 was obtained from the AIDS Research and Reference Reagent Program. Both virus stocks were amplified and titered in MT-2 cells using a virus infectivity assay.
(§2) Drug Susceptibility and Cytotoxicity Assays. For drug susceptibility assays, MT-2 cells were infected with HIV-1 NL4-3 at an MOI of 0.001, and seeded into 96-well microtiter plates (2.5×10^5 cells/ml) containing serial dilutions of test compounds. […] Each drug ratio consisted of an array of 3-fold serial dilutions, and was performed in quadruplicate. The plates were incubated at 37° C./5% CO2. The MT-2 cells infected with HIV-1 NL4-3 were incubated for 5 days. On day-five post-infection, 20 μl from each well was harvested and quantitated by a reverse transcriptase (RT) assay or an MTS assay. Cytotoxicity assays were performed using uninfected cells, exposed to the same drug combinations, and incubated for five days. Cell viability was determined by an XTT assay. The CC50 values were calculated by using the exponential form of the median effect equation as mentioned below for calculation of EC50.
(§3) In this equation, Fa stands for “fraction affected,” and represents the fraction of the viral load that has been inactivated.
In carrying out the combination experiments below, the EC50 for Compound 1 and each comparator compound was determined during the course of each study, and used in the subsequent data analysis.

[2] = test system: HIV-1 NL4-3; assay: Two-drug combination study with Compound 1 (combination indices); assay type: cell-based; settings: for Combination Indices at 50% HIV Inhibition (Confidence Interval) / Combination Indices at 75% HIV Inhibition (Confidence Interval) / Combination Indices at 90% HIV Inhibition (Confidence Interval): 95% CI in parentheses; for Overall Result: overall antiviral effect of the two-drug combination with Compound 1, all ratios and effective levels
Description: as §1, §2
Analysis of Drug Combination Effects. For determination of CI values, drugs were diluted in a fixed ratio and multiple ratios were analyzed. The drug serial dilutions spanned a range of concentrations near the EC50 value of each compound, so that equivalent antiviral activities could be compared. Concentration-response curves were estimated for each individual drug and every combination using the median-effect equation. The equation was fit using a nonlinear regression routine (Proc Nlin) in PC SAS version 8.01 (SAS Institute Inc., SAS Version 8.01, Cary, N.C.: SAS Institute Inc., 1990).
as §3
To assess antiviral effects of different drug combination treatments, combination indices (CIs) were calculated according to Chou and Rideout. The combination index was computed as CI=[D]1/[Dm]1+[D]2/[Dm]2
In this equation [Dm]1 and [Dm]2 are the concentrations of drugs that would individually produce a specific level of effect, while [D]1 and [D]2 are the concentrations of drugs in combination that would produce the same level of effect.
Theoretically, additivity is implied if the CI is equal to one, synergy if the CI is less than one, and antagonism if the CI is greater than one. […] At best, we can construct a range that contains the likely values for the CI, given the noise in the data. In this report, these ranges are reported in parentheses next to each point estimate of the CI. […] If the range fell entirely above 1.0, we would infer antagonistic behavior. If the range were to include 1.0, we would infer additivity.

[3] = combination with Compound 1, EC50 ratio 1:1 (Compound 1:comparator)
[4] = combination with Compound 1, EC50 ratio 1:2.5 (Compound 1:comparator)
[5] = combination with Compound 1, EC50 ratio 2.5:1 (Compound 1:comparator)

Structure (SMILES)	EC50 [1] [µM]	Combination Indices at 50% HIV Inhibition (Confidence Interval) [2, 3]	Combination Indices at 75% HIV Inhibition (Confidence Interval) [2, 3]	Combination Indices at 90% HIV Inhibition (Confidence Interval) [2, 3]	Combination Indices at 50% HIV Inhibition (Confidence Interval) [2, 4]	Combination Indices at 75% HIV Inhibition (Confidence Interval) [2, 4]	Combination Indices at 90% HIV Inhibition (Confidence Interval) [2, 4]	Combination Indices at 50% HIV Inhibition (Confidence Interval) [2, 5]	Combination Indices at 75% HIV Inhibition (Confidence Interval) [2, 5]	Combination Indices at 90% HIV Inhibition (Confidence Interval) [2, 5]	Overall Result [2]	Overall Result ([2]; listed as zalcitabine)	Overall Result ([2]; listed as zidovudine)	combination effect at the 5:1 and 2:1 molar ratios ([2]; combination with Compound 1, all effective levels)	combination effect at the 12.5:1 molar ratio ([2]; combination with Compound 1, only at the 75% and 90% effective levels)	Overall Result ([2]; listed as nelfinavir)
Nc1ccn([C@@H]2CS[C@H](CO)O2)c(=O)n1 [Lamivudine, lamivudine]	0.19	0.69 (0.58, 0.81)	0.49 (0.38, 0.61)	0.37 (0.25, 0.50)	0.58 (0.52, 0.65)	0.60 (0.51, 0.69)	0.64 (0.49, 0.80)	0.93 (0.65, 1.20)	0.78 (0.46, 1.10)	0.70 (0.24, 1.16)	–	–	–	–	–	–
CC(C)c1nc(CN(C)C(=O)N[C@H](C(=O)N[C@@H](Cc2ccccc2)C[C@H](O)[C@H](Cc2ccccc2)NC(=O)OCc2cncs2)C(C)C)cs1 [Ritonavir, ritonavir]	0.024	1.35 (0.72, 1.97)	1.74 (0.61, 2.87)	2.56 (0.00, 5.18)	1.23 (0.73, 1.74)	1.24 (0.53, 1.96)	1.39 (0.13, 2.65)	1.37 (0.95, 1.80)	1.18 (0.67, 1.68)	1.13 (0.37, 1.88)	Additive	–	–	–	–	–
Nc1ccn([C@H]2CC[C@@H](CO)O2)c(=O)n1 [Zalcitabine, zalcitabine]	0.12	0.79 (0.64, 0.94)	0.75 (0.55, 0.96)	0.72 (0.42, 1.02)	0.83 (0.70, 0.95)	0.70 (0.56, 0.85)	0.60 (0.41, 0.80)	0.85 (0.75, 0.95)	0.72 (0.61, 0.84)	0.61 (0.46, 0.77)	Synergistic	synergistic	–	–	–	–
Cc1cn([C@H]2C[C@H](N=[N+]=[N-])[C@@H](CO)O2)c(=O)[nH]c1=O [Zidovudine, zidovudine]	0.002	0.21 (0.16, 0.26)	0.15 (0.10, 0.20)	0.12 (0.06, 0.18)	0.33 (0.26, 0.40)	0.23 (0.16, 0.29)	0.16 (0.09, 0.24)	0.21 (0.18, 0.24)	0.16 (0.12, 0.19)	0.13 (0.08, 0.17)	Synergistic	–	synergistic	–	–	–
Cc1c(O)cccc1C(=O)N[C@@H](CSc1ccccc1)[C@H](O)CN1C[C@H]2CCCC[C@H]2C[C@H]1C(=O)NC(C)(C)C [Nelfinavir, nelfinavir]	0.008	0.55 (0.45, 0.65)	0.57 (0.42, 0.71)	0.59 (0.35, 0.83)	0.41 (0.34, 0.49)	0.50 (0.38, 0.63)	0.62 (0.36, 0.87)	0.82 (0.65, 0.99)	0.84 (0.60, 1.08)	0.87 (0.47, 1.27)	Moderately	–	–	synergy	bias toward additivity	moderately synergistic
